In patent US8765767B2, “Positive allosteric modulators of mGluR2” (Bristol-Myers Squibb Company, priority 2012, dated 2014):
pEC50: −log10 of the molar value.

Target: T1, human mGluR2 (Homo sapiens, UniProt Q14416)
T1 construct: expressed in transfected cells; host or cells: HEK293 clonal line
Assay: mGluR2 cAMP assay (HTRF) in HEK293 cells clonally expressing human mGluR2
Format: cell-based
Conditions: HEK293 cells expressing human mGluR2, 1 μM forskolin, 1 μM LY-341495, 30 min
Procedure: • Cell Culture. Clonally expressed human mGluR2 in HEK293 background was glutamate starved overnight in media without glutamine (GIBCO MEM 12360), containing 10% FBS, 1% penicillin streptomycin. • cAMP Measurement. On the day of the assay, media was removed, cells washed with PBS, cells harvested and pelleted by centrifugation. Cell pellets were resuspended in stimulation buffer without forskolin and counted. A solution of 1.25×10^6 cells/mL was prepared and dispensed to plates using a Combi liquid handler (Thermo). A standard curve was created using a top concentration of cAMP of 1 μM in the stimulation buffer, 1:3 dilutions over 14 points in the absence of cells. Plates were read by time-resolved fluorescence at […] and a ratio was calculated via in house software, (665 nM/618 nM)*10^4. In house software converted the fluorescence value ratios to units of cAMP concentration, which is then used to calculate % inhibition for each test compound. • MGluR2 cAMP Assay Materials and Methods. Compounds were added to white, standard volume 384 non-binding surface plates (Corning 3574). Cells were resuspended in stimulation buffer consisting of Hanks Balanced Salt Solution (14175-095) pH 7.0, 20 mM HEPES, 2.0 mM CaCl2, 5.0 mM MgCl2, and 1 mM IBMX (Sigma 15879), 1 μM forskolin, and 1 μM LY-341495 for 30 min. Buffer without forskolin was used as a negative control. Solutions of D2 and cryptate detection reagents from the CISBIO dynamic cAMP kit (62AM4PEJ) were diluted 1:40 in lysis buffer. Lysis buffer consisted of 50 mM Phosphate Buffer pH 7.0, 800 mM Potassium Fluoride, 0.2% BSA, and 1.0% Triton. Assay reaction was terminated by addition of detection reagents in lysis buffer. One hour later, plates were read on a PE Viewlux. Data was extracted, and concentration response curves generated by fitting the data to a standard 4 parameter logistic equation from which EC50 values were determined.

T1 sequence (Q14416 19-872): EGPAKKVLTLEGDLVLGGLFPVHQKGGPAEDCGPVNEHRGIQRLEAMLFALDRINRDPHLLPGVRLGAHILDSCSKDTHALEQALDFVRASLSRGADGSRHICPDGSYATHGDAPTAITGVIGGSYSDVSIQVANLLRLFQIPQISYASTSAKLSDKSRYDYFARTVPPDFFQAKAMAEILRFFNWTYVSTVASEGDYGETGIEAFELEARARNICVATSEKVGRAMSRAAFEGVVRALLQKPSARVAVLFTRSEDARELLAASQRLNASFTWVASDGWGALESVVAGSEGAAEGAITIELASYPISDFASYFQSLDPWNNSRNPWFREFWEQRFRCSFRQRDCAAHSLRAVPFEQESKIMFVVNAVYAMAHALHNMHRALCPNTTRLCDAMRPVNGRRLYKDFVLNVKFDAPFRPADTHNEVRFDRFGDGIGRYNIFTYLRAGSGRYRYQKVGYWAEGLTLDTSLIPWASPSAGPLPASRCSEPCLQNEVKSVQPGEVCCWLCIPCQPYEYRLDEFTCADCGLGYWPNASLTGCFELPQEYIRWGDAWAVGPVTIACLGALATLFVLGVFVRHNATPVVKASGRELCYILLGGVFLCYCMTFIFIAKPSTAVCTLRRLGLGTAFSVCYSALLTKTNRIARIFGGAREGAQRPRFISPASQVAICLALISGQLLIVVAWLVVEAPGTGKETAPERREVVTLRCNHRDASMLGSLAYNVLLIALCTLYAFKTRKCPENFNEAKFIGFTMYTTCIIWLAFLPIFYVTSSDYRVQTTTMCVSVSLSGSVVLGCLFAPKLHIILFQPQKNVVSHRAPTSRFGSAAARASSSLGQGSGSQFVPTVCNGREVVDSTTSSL

pEC50	Compound
8.05	Fc1ccc(C2CC2CNc2ccn3c(CC4CC4)nnc3c2Cl)cc1 (racemic) [Example 1, 8-chloro-3-(cyclopropylmethyl)-N-((2-(4-fluorophenyl)cyclopropyl)methyl)-[1,2,4]triazolo[4,3-a]pyridin-7-amine]
8.30	Clc1c(NC[C@@H]2CCC[C@H]2c2ccccc2)ccn2c(CC3CC3)nnc12 (racemic) [Example 3, (+/−)Trans-8-chloro-3-(cyclopropylmethyl)-N-((2-phenylcyclopentyl)methyl)-[1,2,4]triazolo[4,3-a]pyridin-7-amine]
8.30	Clc1c(NC[C@@H]2C[C@H]2c2ccccc2)ccn2c(CC3CC3)nnc12 (relative stereo) [Example 4, Trans-8-chloro-3-(cyclopropylmethyl)-N-((2-phenylcyclopropyl)methyl)-[1,2,4]triazolo[4,3-a]pyridin-7-amine]
8.15	COc1ccccc1[C@@H]1C[C@H]1CNc1ccn2c(CC3CC3)nnc2c1Cl (relative stereo) [Example 6, Trans-8-chloro-3-(cyclopropylmethyl)-N-((2-(2-methoxyphenyl)cyclopropyl)methyl)-[1,2,4]triazolo[4,3-a]pyridin-7-amine]
8.22	FC(F)Oc1ccccc1[C@@H]1C[C@H]1CNc1ccn2c(CC3CC3)nnc2c1Cl (relative stereo) [Example 7, Trans-8-chloro-3-(cyclopropylmethyl)-N-((2-(2-(difluoromethoxy)phenyl)cyclopropyl)methyl)-[1,2,4]triazolo[4,3-a]pyridin-7-amine]
8.40	FC(F)(F)Oc1ccccc1[C@@H]1C[C@H]1CNc1ccn2c(CC3CC3)nnc2c1Cl (relative stereo) [Example 9, Trans-8-chloro-3-(cyclopropylmethyl)-N-((2-(2-(trifluoromethoxy)phenyl)cyclopropyl)methyl)-[1,2,4]triazolo[4,3-a]pyridin-7-amine]
7.92	Clc1c(NC[C@H]2CCC[C@@H]2c2ccccc2)ccn2c(CC3CC3)nnc12 (single isomer, unassigned) [Example 45]
8.30	Clc1c(NC[C@@H]2CCC[C@H]2c2ccccc2)ccn2c(CC3CC3)nnc12 (single isomer, unassigned) [Example 46]
7.62	Fc1ccc([C@H]2C[C@@H]2CNc2ccn3c(CC(F)(F)F)cnc3c2C(F)(F)F)cc1 (stereo in doubt) [Example 31, N-(((1S,2S)-2-(4-Fluorophenyl)cyclopropyl)methyl)-3-(2,2,2-trifluoroethyl)-8-(trifluoromethyl)imidazo[1,2-a]pyridin-7-amine]
7.36	Fc1ccc([C@@H]2C[C@H]2CNc2ccn3c(CC(F)(F)F)cnc3c2C(F)(F)F)cc1 (stereo in doubt) [Example 32, N-(((1R,2R)-2-(4-Fluorophenyl)cyclopropyl)methyl)-3-(2,2,2-trifluoroethyl)-8-(trifluoromethyl)imidazo[1,2-a]pyridin-7-amine]
7.59	Clc1c(NC2CCC(c3ccccc3)C2)ccn2c(CC3CC3)nnc12 (centres unmarked) [Example 2, 8-Chloro-3-(cyclopropylmethyl)-N-(3-phenylcyclopentyl)-[1,2,4]triazolo[4,3-a]pyridin-7-amine]
8.30	Fc1ccc([C@H]2C[C@@H]2CNc2ccn3c(CC4CC4)nnc3c2Cl)cc1 [Example 5, 8-Chloro-3-(cyclopropylmethyl)-N-(((1S,2S)-2-(4-fluorophenyl)cyclopropyl)methyl)-[1,2,4]triazolo[4,3-a]pyridin-7-amine]
7.92	COc1cccc([C@H]2C[C@@H]2CNc2ccn3c(CC4CC4)nnc3c2Cl)c1 [Example 8, 8-Chloro-3-(cyclopropylmethyl)-N-(((1S,2S)-2-(3-methoxyphenyl)cyclopropyl)methyl)-[1,2,4]triazolo[4,3-a]pyridin-7-amine]
8.22	COc1c(F)ccc(F)c1[C@H]1C[C@@H]1CNc1ccn2c(CC3CC3)nnc2c1Cl [Example 10, 8-Chloro-3-(cyclopropylmethyl)-N-(((1S,2S)-2-(3,6-difluoro-2-methoxyphenyl)cyclopropyl)methyl)-[1,2,4]triazolo[4,3-a]pyridin-7-amine]
7.92	Clc1c(NC[C@H]2C[C@@H]2c2cccc3c2CCO3)ccn2c(CC3CC3)nnc12 [Example 11, 8-Chloro-3-(cyclopropylmethyl)-N-(((1S,2S)-2-(2,3-dihydrobenzofuran-4-yl)cyclopropyl)methyl)-[1,2,4]triazolo[4,3-a]pyridin-7-amine]
7.08	Fc1cnc(C2CC2CNc2ccn3c(CC4CC4)nnc3c2Cl)nc1 (centres unmarked) [Example 12, 8-Chloro-3-(cyclopropylmethyl)-N-((2-(5-fluoropyrimidin-2-yl)cyclopropyl)methyl)-[1,2,4]triazolo[4,3-a]pyridin-7-amine]
6.99	Fc1cnc(C2CC2CNc2ccn3c(CC4CC4)nnc3c2C(F)(F)F)nc1 (centres unmarked) [Example 13, 3-(Cyclopropylmethyl)-N-((2-(5-fluoropyrimidin-2-yl)cyclopropyl)methyl)-8-(trifluoromethyl)-[1,2,4]triazolo[4,3-a]pyridin-7-amine]
7.26	CC(Nc1ccn2c(CC3CC3)nnc2c1Cl)[C@@H]1C[C@H]1c1ccc(F)cc1 (stereo partly drawn) [Example 14, 8-Chloro-3-(cyclopropylmethyl)-N-(1-((1R,2R)-2-(4-fluorophenyl)cyclopropyl)ethyl)-[1,2,4]triazolo[4,3-a]pyridin-7-amine]
7.51	CC(Nc1ccn2c(CC3CC3)nnc2c1Cl)[C@H]1C[C@@H]1c1ccc(F)cc1 (stereo partly drawn) [Example 15, 8-Chloro-3-(cyclopropylmethyl)-N-(1-((1S,2S)-2-(4-fluorophenyl)cyclopropyl)ethyl)-[1,2,4]triazolo[4,3-a]pyridin-7-amine]
7.34	Fc1ccc(C2(CNc3ccn4c(CC5CC5)nnc4c3Cl)CC2)cc1 [Example 16, 8-chloro-3-(cyclopropylmethyl)-N-((1-(4-fluorophenyl)cyclopropyl)methyl)-[1,2,4]triazolo[4,3-a]pyridin-7-amine]
8.22	N#Cc1ccccc1C1CC1CNc1ccn2c(CC3CC3)nnc2c1Cl (centres unmarked) [Example 17, 2-(2-(((8-chloro-3-(cyclopropylmethyl)-[1,2,4]triazolo[4,3-a]pyridin-7-yl)amino)methyl)cyclopropyl)benzonitrile]
6.61	Clc1c(NCC2CC2c2ccncc2)ccn2c(CC3CC3)nnc12 (centres unmarked) [Example 18, 8-Chloro-3-(cyclopropylmethyl)-N-((2-(pyridin-4-yl)cyclopropyl)methyl)-[1,2,4]triazolo[4,3-a]pyridin-7-amine]
6.44	Clc1c(NCC2CC2c2cccnc2)ccn2c(CC3CC3)nnc12 (centres unmarked) [Example 19, 8-chloro-3-(cyclopropylmethyl)-N-((2-(pyridin-3-yl)cyclopropyl)methyl)-[1,2,4]triazolo[4,3-a]pyridin-7-amine]
8.70	Fc1ccc([C@H]2C[C@@H]2CNc2ccn3c(CC4CC4)nnc3c2C(F)(F)F)cc1 [Example 20, 3-(Cyclopropylmethyl)-N-(((1S,2S)-2-(4-fluorophenyl)cyclopropyl)methyl)-8-(trifluoromethyl)-[1,2,4]triazolo[4,3-a]pyridin-7-amine]
8.70	Fc1ccc([C@H]2C[C@@H]2CNc2ccn3c(CC(F)(F)F)nnc3c2C(F)(F)F)cc1 [Example 21, N-(((1S,2S)-2-(4-Fluorophenyl)cyclopropyl)methyl)-3-(2,2,2-trifluoroethyl)-8-(trifluoromethyl)-[1,2,4]triazolo[4,3-a]pyridin-7-amine]
9.00	Fc1ccc([C@@H]2C[C@H]2CNc2ccn3c(CC4CC4)nnc3c2C(F)(F)F)cc1 [Example 22, 3-(Cyclopropylmethyl)-N-(((1R,2R)-2-(4-fluorophenyl)cyclopropyl)methyl)-8-(trifluoromethyl)-[1,2,4]triazolo[4,3-a]pyridin-7-amine]
7.39	Fc1ccc(C2CC2CNc2ccn3c(CC(F)(F)F)cnc3c2C(F)(F)F)cc1 (centres unmarked) [Example 25, N-((2-(4-Fluorophenyl)cyclopropyl)methyl)-3-(2,2,2-trifluoroethyl)-8-(trifluoromethyl)imidazo[1,2-a]pyridin-7-amine]
7.27	N#Cc1c(NCC2CC2c2cccc(F)c2)ccn2c(CC(F)(F)F)cnc12 (centres unmarked) [Example 26, 7-(((2-(3-Fluorophenyl)cyclopropyl)methyl)amino)-3-(2,2,2-trifluoroethyl)imidazo[1,2-a]pyridine-8-carbonitrile]
7.70	COc1cccc(F)c1C1CC1CNc1ccn2c(CC(F)(F)F)cnc2c1C#N (centres unmarked) [Example 27, 7-(((2-(2-Fluoro-6-methoxyphenyl)cyclopropyl)methyl)amino)-3-(2,2,2-trifluoroethyl)imidazo[1,2-a]pyridine-8-carbonitrile]
